Assay results published in patent US10722514B2 (FLX Bio, Inc., priority 2017, dated 2020).

The compounds below were run against T1, recombinant full-length USP7 (Homo sapiens, UniProt Q93009) (assay: USP7-mediated ubiquitin-rhodamine cleavage assay). Settings: recombinant full-length USP7 62 pM; ubiquitin-rhodamine 100 nM; 30-minute incubation with compound, 1 hour reaction at room temperature; read-out: Potency: USP7 IC50.
T1 construct: A 25 μl reaction volume containing recombinant full-length USP7 (62 pM)
Format: biochemical
Experimental: In the case of the USP7 deubiquitylating enzyme, the IC50 of an USP7 inhibiting compound is the concentration of the compound that inhibits 50% of the activity observed in a USP7-mediated ubiquitin-rhodamine cleavage assay.
For the USP7 inhibitors disclosed herein, their potency was measured using the following test method.
A 25 μl reaction volume containing recombinant full-length USP7 (62 pM) in 20 mM HEPES pH 7.3, 150 mM NaCl, 1 mM TCEP, and 125 μg/ml BSA was assembled in wells of 384 well plates. Test compounds were dispensed with a Hewlett Packard D300 digital dispenser (1% final DMSO). Following a 30-minute incubation at room temperature, ubiquitin-rhodamine was added with the D300 to a final concentration of 100 nM and the reaction was allowed to proceed for 1 hour at room temperature protected from light. The reaction was stopped by the addition of 5 μl 1M acetic acid. Rhodamine fluorescence was measured using an Envision plate reader (Perkin Elmer) and IC50 values were determined by non-linear regression using a 4-parameter fit in a Dotmatics (Bishops Stortford, Hertfordshire, England) software package.

T1 sequence (Q93009 whole entry): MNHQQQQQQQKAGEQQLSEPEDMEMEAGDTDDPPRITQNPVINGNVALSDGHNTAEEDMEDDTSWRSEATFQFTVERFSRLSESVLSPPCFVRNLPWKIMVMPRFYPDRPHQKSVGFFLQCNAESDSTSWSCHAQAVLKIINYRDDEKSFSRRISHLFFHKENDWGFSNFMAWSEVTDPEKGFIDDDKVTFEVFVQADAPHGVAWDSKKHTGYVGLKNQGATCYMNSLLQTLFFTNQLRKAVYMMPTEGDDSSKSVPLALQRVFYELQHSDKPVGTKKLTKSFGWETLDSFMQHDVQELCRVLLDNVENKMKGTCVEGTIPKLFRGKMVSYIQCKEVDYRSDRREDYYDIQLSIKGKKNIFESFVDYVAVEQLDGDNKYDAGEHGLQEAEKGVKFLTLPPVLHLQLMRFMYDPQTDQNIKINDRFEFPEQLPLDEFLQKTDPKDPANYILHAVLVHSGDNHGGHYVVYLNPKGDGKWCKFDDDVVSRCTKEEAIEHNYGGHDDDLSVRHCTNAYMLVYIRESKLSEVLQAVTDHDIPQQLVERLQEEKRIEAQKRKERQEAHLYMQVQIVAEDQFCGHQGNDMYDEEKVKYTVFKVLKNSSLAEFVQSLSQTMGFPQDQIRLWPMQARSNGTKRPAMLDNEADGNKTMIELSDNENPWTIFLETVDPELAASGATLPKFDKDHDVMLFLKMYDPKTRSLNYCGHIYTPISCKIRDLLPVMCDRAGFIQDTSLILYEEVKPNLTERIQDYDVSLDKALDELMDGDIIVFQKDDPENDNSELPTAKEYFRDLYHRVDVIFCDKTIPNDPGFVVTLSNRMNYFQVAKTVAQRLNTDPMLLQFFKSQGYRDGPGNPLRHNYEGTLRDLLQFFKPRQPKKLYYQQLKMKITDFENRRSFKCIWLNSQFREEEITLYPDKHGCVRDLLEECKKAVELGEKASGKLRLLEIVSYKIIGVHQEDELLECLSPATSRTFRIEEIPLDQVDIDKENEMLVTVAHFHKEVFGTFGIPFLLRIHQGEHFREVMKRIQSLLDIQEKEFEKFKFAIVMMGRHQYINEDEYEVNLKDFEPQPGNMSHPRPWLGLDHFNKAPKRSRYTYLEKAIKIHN

SMILES | IC50
Cc1cc(Cl)cc(-c2ncnc3cc(CN4C(=O)CCN(C)C4=O)sc23)c1O[C@H]1CCCNC1 [Example 252, (S)-3-((4-(5-Chloro-3-methyl-2-(piperidin-3-yloxy)phenyl)thieno[3,2-d]pyrimidin-6-yl)methyl)-1-methyldihydropyrimidine-2,4(1H,3H)-dione] | < 1000 nM
Cc1cc(Cl)cc(-c2ncnc3cc(CN4C(=O)C5CC5C4=O)sc23)c1OC1CCNCC1 (stereo not drawn) [Example 231, 3-((4-(5-Chloro-3-methyl-2-(piperidin-4-yloxy)phenyl)thieno[3,2-d]pyrimidin-6-yl)methyl)-3-azabicyclo[3.1.0]hexane-2,4-dione] | 1000 to 10000 nM
Cc1cc(Cl)cc(-c2ccnc3cc(CO)sc23)c1OC[C@H]1CCN1 [Example 16, (R)-(7-(2-(Azetidin-2-ylmethoxy)-5-chloro-3-methylphenyl)thieno[3,2-b]pyridin-2-yl)methanol] | 10000 to 30000 nM
Cc1cc(Cl)cc(-c2ccnc3cc(CN4C(=O)C5C(C4=O)C5(C)C)sc23)c1OC1CN2CCC1CC2 (stereo not drawn) [Example 316, 3-[[7-(5-chloro-3-methyl-2-quinuclidin-3-yloxy-phenyl)thieno[3,2-b]pyridin-2-yl]methyl]-6,6-dimethyl-3-azabicyclo[3.1.0]hexane-2,4-dione; 2,2,2-trifluoroacetic acid] | < 1000 nM
CC(Oc1ccc(Cl)cc1-c1ccnc2cc(CO)sc12)C1CNC1 (stereo not drawn) [Example 42, (7-(2-(1-(Azetidin-3-yl)ethoxy)-5-chlorophenyl)thieno[3,2-b]pyridin-2-yl)methanol] | 10000 to 30000 nM
Cc1cc(Cl)cc(-c2ccnc3cc(Cn4c(=O)ccn(CC(F)(F)F)c4=O)sc23)c1OC1CCNCC1C(F)(F)F (stereo not drawn) [Example 272, 3-((7-(5-Chloro-3-methyl-2-((3-(trifluoromethyl)piperidin-4-yl)oxy)phenyl)thieno[3,2-b]pyridin-2-yl)methyl)-1-(2,2,2-trifluoroethyl)pyrimidine-2,4(1H,3H)-dione] | < 1000 nM
Cc1cc(Cl)cc(-c2ccnc3cc(CN4C(=O)c5ccncc5C4=O)sc23)c1O[C@H]1CCCNC1 [Example 335, 2-[[7-[5-chloro-3-methyl-2-[[(3S)-3-piperidyl]oxy]phenyl]thieno[3,2-b]pyridin-2-yl]methyl]pyrrolo[3,4-c]pyridine-1,3-dione; 2,2,2-trifluoroacetic acid] | < 1000 nM
Cc1cc(Cl)cc(-c2ncnc3cc(CN4C(=O)C5C(C4=O)C5(C)C)sc23)c1OC1CNCC1(C)C (stereo not drawn) [Example 371, 3-[[4-[5-chloro-2-(4,4-dimethylpyrrolidin-3-yl)oxy-3-methyl-phenyl]thieno[3,2-d]pyrimidin-6-yl]methyl]-6,6-dimethyl-3-azabicyclo[3.1.0]hexane-2,4-dione] | < 1000 nM
Cc1cc(Cl)cc(-c2ccnc3cc(CN4C(=O)C5CC5C4=O)sc23)c1O[C@H]1CCCNC1 (stereo partly drawn) [Example 244, 3-((7-(5-Chloro-3-methyl-2-(((S)-piperidin-3-yl)oxy)phenyl)thieno[3,2-b]pyridin-2-yl)methyl)-3-azabicyclo[3.1.0]hexane-2,4-dione] | < 1000 nM
Cc1cc(C(F)(F)F)cc(-c2ccnc3cc(CN4C(=O)CCC4=O)sc23)c1O[C@@H]1CNC[C@@H]1F [Example 63, 1-((7-(2-(((3R,4S)-4-Fluoropyrrolidin-3-yl)oxy)-3-methyl-5-(trifluoromethyl)phenyl)thieno[3,2-b]pyridin-2-yl)methyl)pyrrolidine-2,5-dione] | < 1000 nM
Cc1cc(Cl)cc(-c2ccnc3cc(Cn4c(=O)ccn(C)c4=O)sc23)c1O[C@H]1CCCNC1 [Example 161, (S)-3-((7-(5-Chloro-3-methyl-2-(piperidin-3-yloxy)phenyl)thieno[3,2-b]pyridin-2-yl)methyl)-1-methylpyrimidine-2,4(1H,3H)-dione] | < 1000 nM
Cc1cc(C(F)(F)F)cc(-c2ccnc3cc(Cn4c(=O)ccn(C)c4=O)sc23)c1O[C@@H]1CNC[C@@H]1F [Example 132, 3-((7-(2-(((3R,4S)-4-Fluoropyrrolidin-3-yl)oxy)-3-methyl-5-(trifluoromethyl)phenyl)thieno[3,2-b]pyridin-2-yl)methyl)-1-methylpyrimidine-2,4(1H,3H)-dione] | < 1000 nM
Cc1cc(Cl)cc(-c2ccnc3cc(CO)sc23)c1O[C@@H]1CNC[C@@H]1O [Example 78, (3S,4R)-4-(4-Chloro-2-(2-(hydroxymethyl)thieno[3,2-b]pyridin-7-yl)-6-methylphenoxy)pyrrolidin-3-ol] | 1000 to 10000 nM
Cc1cc(Cl)cc(-c2ccnc3cc(Cn4c(=O)ccn(C)c4=O)sc23)c1O[C@H]1C[C@H](N)C1 [Example 7, 3-((7-(2-((1r,3r)-3-Aminocyclobutoxy)-5-chloro-3-methylphenyl)thieno[3,2-b]pyridin-2-yl)methyl)-1-methylpyrimidine-2,4(1H,3H)-dione] | < 1000 nM

Same assay, conditions: recombinant full-length USP7 62 pM; ubiquitin-rhodamine 100 nM; 30-minute pre-incubation, 1 hour reaction at room temperature; read-out: Potency (USP7 IC50)

SMILES | IC50
Cc1cc(Cl)cc(-c2ccnc3cc(Cn4c(=O)ccn(CC(F)(F)F)c4=O)sc23)c1O[C@H]1CC[C@](C)(N2CCOCC2)C1 [Example 612, 3-[[7-[5-chloro-3-methyl-2-[(1S,3S)-3-methyl-3-morpholino-cyclopentoxy]phenyl]thieno[3,2-b]pyridin-2-yl]methyl]-1-(2,2,2-trifluoroethyl)pyrimidine-2,4-dione; 2,2,2-trifluoroacetic acid] | < 1000 nM
Cc1cc(Cl)cc(-c2ccnc3cc(Cn4c(=O)ccn(C)c4=O)sc23)c1OC1CN2CCC1C2 [Example 529, 3-[[7-[2-[[(1R,3R,4S)-1-azabicyclo[2.2.1]heptan-3-yl]oxy]-5-chloro-3-methyl-phenyl]thieno[3,2-b]pyridin-2-yl]methyl]-1-methyl-pyrimidine-2,4-dione] | < 1000 nM
Cc1cc(Cl)cc(-c2ccnc3cc(Cn4c(=O)ccn(C)c4=O)sc23)c1O[C@H]1CCN(C(C)C)C[C@@H]1F [Example 473, 3-[[7-[5-chloro-2-[[(3S,4S)-3-fluoro-1-isopropyl-4-piperidyl]oxy]-3-methyl-phenyl]thieno[3,2-b]pyridin-2-yl]methyl]-1-methyl-pyrimidine-2,4-dione; 2,2,2-trifluoroacetic acid] | < 1000 nM
Cc1cc(Cl)cc(-c2ccnc3cc(Cn4c(=O)ccn(C)c4=O)sc23)c1O[C@@H]1CCN[C@@H](C)C1 [Example 495, 3-[[7-[5-chloro-3-methyl-2-[[(2S,4R)-2-methyl-4-piperidyl]oxy]phenyl]thieno[3,2-b]pyridin-2-yl]methyl]-1-methyl-pyrimidine-2,4-dione] | < 1000 nM
Cc1cc(Cl)cc(-c2ccnc3cc(Cn4c(=O)ccn(CC(F)(F)F)c4=O)sc23)c1O[C@@H]1CN[C@@H](C(C)(C)O)C1 [Example 635, 3-[[7-[5-chloro-2-[(3S,5R)-5-(1-hydroxy-1-methyl-ethyl)pyrrolidin-3-yl]oxy-3-methyl-phenyl]thieno[3,2-b]pyridin-2-yl]methyl]-1-(2,2,2-trifluoroethyl)pyrimidine-2,4-dione] | < 1000 nM
Cc1cc(Cl)cc(-c2ccnc3cc(Cn4c(=O)ccn(C)c4=O)sc23)c1OC1CC2CC1N(C(C)C)C2 (stereo not drawn) [Example 474, 3-[[7-[5-chloro-2-[(3-isopropyl-3-azabicyclo[2.2.1]heptan-5-yl)oxy]-3-methyl-phenyl]thieno[3,2-b]pyridin-2-yl]methyl]-1-methyl-pyrimidine-2,4-dione] | < 1000 nM
Cc1cc(Cl)cc(-c2ccnc3cc(Cn4c(=O)[nH]cc(C)c4=O)sc23)c1O[C@H]1CCCNC1 [Example 479, 3-[[7-[5-chloro-3-methyl-2-[[(3S)-3-piperidyl]oxy]phenyl]thieno[3,2-b]pyridin-2-yl]methyl]-5-methyl-1H-pyrimidine-2,4-dione] | < 1000 nM
